Laboratory results published in patent US7629323B2, “Manipulation of neuronal ion channels” (Northwestern University, priority 2003, dated 2009).

Assays:
homomeric Kv3.4 channels = biological target: T1, homomeric Kv3.4 channels (Rattus norvegicus, UniProt Q63734); conditions: low micromolar concentrations; cited from earlier work
T1 sequence (Q63734 1-625): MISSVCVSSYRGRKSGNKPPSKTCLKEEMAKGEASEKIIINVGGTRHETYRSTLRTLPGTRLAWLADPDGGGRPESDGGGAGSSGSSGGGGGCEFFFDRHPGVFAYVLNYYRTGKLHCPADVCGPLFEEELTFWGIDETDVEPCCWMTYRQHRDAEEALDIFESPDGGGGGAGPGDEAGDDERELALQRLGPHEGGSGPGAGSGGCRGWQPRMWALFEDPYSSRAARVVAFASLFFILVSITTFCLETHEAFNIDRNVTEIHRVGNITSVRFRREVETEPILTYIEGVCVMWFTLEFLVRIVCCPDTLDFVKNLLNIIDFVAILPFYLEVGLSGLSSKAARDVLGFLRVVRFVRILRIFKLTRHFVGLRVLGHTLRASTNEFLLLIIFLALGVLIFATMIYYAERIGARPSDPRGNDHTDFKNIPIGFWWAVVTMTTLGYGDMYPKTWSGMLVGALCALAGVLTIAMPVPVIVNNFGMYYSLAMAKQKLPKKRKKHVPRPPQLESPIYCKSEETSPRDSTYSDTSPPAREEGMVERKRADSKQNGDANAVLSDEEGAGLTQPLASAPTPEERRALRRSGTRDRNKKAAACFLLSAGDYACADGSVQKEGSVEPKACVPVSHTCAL

[1] = tested on: Kv3 channels in FS neurons; assay: Whole-cell voltage clamp of Kv3 delayed rectifier currents in acutely dissociated FS neurons; type: cell-based, rat
Excerpt: Tissue preparation. […] Hippocampal interneurons and GP were identified as CaMKII negative, GAD67 and parvalbumin positive neurons by single cell RT-PCR detection of corresponding mRNAs following physiology experiments (see below).
Electrophysiology. Whole-cell recordings used standard techniques^27,28. The internal solution consisted of (in mM): 30-90 K2SO4, 0-60 N-methyl-D-glucamine, 2 MgCl2, 40 HEPES, 5 EGTA, 12 phosphocreatine, 2 Na2ATP, 0.2 Na3GTP, and 0.1 leupeptin, pH 7.2 with H2SO4 (osmolarity 260-270 mOsm/l). The external solution consisted of (in mM): 140 Na-isethionate, 2 KCl, 4 MgCl2, 10 HEPES, 12 glucose and 0.001 TTX, pH 7.35 with NaOH (osmolarity 295-305 mOsm/l). The internal solution for current clamp recordings consisted of (in mM) 110 potassium methylsulphate, 2 MgCl2, 40 HEPES, 5 EGTA, 12 phosphocreatine, 2 Na2ATP, 0.2 Na3GTP, and 0.1 leupeptin, pH 7.2 with H2SO4 (osmolarity 260-270 mOsm/l). In the case of current clamp recordings, TTX was omitted from external solution. For the recordings in the presence of Ca^+2 ions EGTA was omitted from internal solution and 4 mM of MgCl2 was substituted by 2 mM of CaCl2 and 2 mM of MgCl2. All drugs were obtained from Sigma (St. Louis, […]) except BDS-I that was obtained from Alomone Labs (Jerusalem, Israel). Solutions were applied by gravity fed sewer pipe system. Recordings were obtained with Axon Instruments 200 patch-clamp amplifier and controlled and monitored with a PC running pClamp software (version 7.0) (Axon Instruments Inc., Union City, Calif.). […] After seal rupture, series resistance (2-10 MΩ) was compensated (75-90%) and periodically monitored. […] Activation data were fit with a Boltzmann equation of the form: 1/(1+exp ((Vh−V)/Vc), V stands for membrane potential. In the case of Kv3.4a current, an estimate of peak current was obtained by single exponential fit of decay phase extrapolated to the start of test pulse. In all other instances the voltage dependence of the currents was obtained from the amplitude of tail currents measured following 200 msec long voltage steps. […]

[2] = tested on: Inward rectifier K+ channels; conditions: cited from earlier work
[3] = biological target: T2, homomeric Kv3.4a channels (Rattus norvegicus, UniProt Q63734); assay: Whole-cell recording of homomeric Kv3.4a channels expressed in HEK293 cells; type: cell-based; conditions: n=5
T2 construct: expressed in transfected cells; host or cells: HEK293
T2 sequence (Q63734 1-625): T1 sequence (Q63734 1-625)
Excerpt: Electrophysiology. Whole-cell recordings used standard techniques^27,28. The internal solution consisted of (in mM): 30-90 K2SO4, 0-60 N-methyl-D-glucamine, 2 MgCl2, 40 HEPES, 5 EGTA, 12 phosphocreatine, 2 Na2ATP, 0.2 Na3GTP, and 0.1 leupeptin, pH 7.2 with H2SO4 (osmolarity 260-270 mOsm/l). The external solution consisted of (in mM): 140 Na-isethionate, 2 KCl, 4 MgCl2, 10 HEPES, 12 glucose and 0.001 TTX, pH 7.35 with NaOH (osmolarity 295-305 mOsm/l). The internal solution for current clamp recordings consisted of (in mM) 110 potassium methylsulphate, 2 MgCl2, 40 HEPES, 5 EGTA, 12 phosphocreatine, 2 Na2ATP, 0.2 Na3GTP, and 0.1 leupeptin, pH 7.2 with H2SO4 (osmolarity 260-270 mOsm/l). In the case of current clamp recordings, TTX was omitted from external solution. For the recordings in the presence of Ca^+2 ions EGTA was omitted from internal solution and 4 mM of MgCl2 was substituted by 2 mM of CaCl2 and 2 mM of MgCl2. […] Recordings were obtained with Axon Instruments 200 patch-clamp amplifier and controlled and monitored with a PC running pClamp software (version 7.0) (Axon Instruments Inc., Union City, Calif.). […] After seal rupture, series resistance (2-10 MΩ) was compensated (75-90%) and periodically monitored. […]
Single cell RT-PCR (scRT-PCR). […] In the case of co-transfection with Kv3.4a and Kv3.1b cDNA, single cell RT-PCR was used to confirm the presence of both mRNAs in the recorded cell. […]

## BDS-I (AAPCFCSGKPGRGDLWILRGTCPGGYGYTSNCYKWPNICCYPH)
Homomeric Kv3.4 channels
  block of homomeric Kv3.4 channels: blocks
[1]
  block of TEA-sensitive, Kv3 channel currents in FS neurons: efficiently blocked
  effect on delayed rectifier currents evoked by depolarization in FS neurons: slowed the rising phase of delayed rectifier currents evoked by depolarization and reduced their amplitude
[1]; at +20 mV
  time for substantial unblocking of channels containing Kv3.4 subunits: more than 5 msec
[2]
  sensitivity of inward rectifier K+ channels: insensitive
[3]
  effect on homomeric Kv3.4a channel currents: slowed the rising phase of the currents but led to larger currents later in the step
